Laboratory results: publication PMC12315041 (ACS medicinal chemistry letters, 2025)

Target: T1, RIPK1 (receptor-interacting protein kinase 1) (Homo sapiens, UniProt Q13546)
T1 sequence (Q13546 1-671): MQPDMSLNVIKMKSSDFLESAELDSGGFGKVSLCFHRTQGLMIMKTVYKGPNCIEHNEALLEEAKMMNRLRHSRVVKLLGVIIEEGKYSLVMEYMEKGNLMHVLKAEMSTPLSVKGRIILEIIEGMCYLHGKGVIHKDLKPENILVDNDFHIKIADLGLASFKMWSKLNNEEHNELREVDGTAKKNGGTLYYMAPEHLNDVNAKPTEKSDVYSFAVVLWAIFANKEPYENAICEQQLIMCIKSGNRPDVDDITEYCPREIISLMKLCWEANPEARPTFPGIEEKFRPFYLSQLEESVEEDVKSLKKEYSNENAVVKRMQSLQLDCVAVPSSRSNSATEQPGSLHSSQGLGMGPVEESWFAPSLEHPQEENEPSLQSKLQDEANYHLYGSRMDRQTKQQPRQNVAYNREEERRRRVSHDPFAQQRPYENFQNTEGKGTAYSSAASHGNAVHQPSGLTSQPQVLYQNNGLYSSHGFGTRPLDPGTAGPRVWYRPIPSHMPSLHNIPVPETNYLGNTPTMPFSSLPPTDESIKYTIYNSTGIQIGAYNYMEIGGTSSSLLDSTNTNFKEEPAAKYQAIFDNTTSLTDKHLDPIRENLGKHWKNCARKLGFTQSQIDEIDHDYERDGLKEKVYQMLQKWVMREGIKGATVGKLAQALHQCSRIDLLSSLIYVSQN
Assay: TR-FRET saturation binding

Kd: 443 nM
Compound: Nc1ncnc2c1c(-c1ccc3c(c1)CCN3C(=O)Cc1cccc(OC(F)(F)F)c1)cn2CCCNC(=O)CCc1ccc2n1[B-](F)(F)[N+]1=C(c3ccc[nH]3)C=CC1=C2 [T2-BDP-589, T2-BODIPY-589]
